Measured values as given in US20250197368A1 (priority 2020, published 2025).
Structures can show the parent of a compound that is named as a salt.

How the values were obtained:
[1] = molecular target: human α2β3γ2 GABAARs (benzodiazepine site) (Homo sapiens (Human), UniProt P18507+P47869); test: In vitro radioligand binding assay ([3H]Ro15-1788 displacement), α2-GABAAR Ki
How it was run: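 Membranes from dexamethasone-induced mouse L(tk−) cells stably expressing the human receptor were incubated 1 h at 4° C with 4 nM [3H]Ro15-1788 and graded compound; nonspecific binding with 1-3 μM TP003. Filter-bound radioactivity counted; Ki from IC50 by Cheng-Prusoff using the measured radioligand Kd.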

[2] = molecular target: human α3β3γ2 GABAARs (benzodiazepine site) (Homo sapiens (Human), UniProt P18507+P34903); test: In vitro radioligand binding assay ([3H]Ro15-1788 displacement), α3-GABAAR Ki; details: L(tk-) cell membranes, 4 nM [3H]Ro15-1788
Procedure: The affinity (Ki) of compounds for the benzodiazepine site of human recombinant GABAARs was measured by their ability to inhibit the binding of the selective benzodiazepine antagonist [^3H]Ro15-1788 ([^3H] flumazenil).
Mouse L(tk^−) cells stably expressing human α1β3γ2, α2β3γ2, α3β3γ2, α5β3γ2 GABAARs were generated by transfection of the individual subunits in the dexamethasone-inducible expression vector pMSGneo in mouse L(tk^−) cells (Hadingham et al., 1993, Mol. Pharmacol. 43:970-975 and 1993, Mol. Pharmacol. 44:1211-1218).
L(tk^−) cells stably expressing human α1β3γ2, α2β3γ2, α3β3γ2, α5β3γ2 GABAARs were maintained in DMEM F12 medium supplemented with 10% Foetal Bovine Serum, 1% Penicillin/Streptomycin and 1 mg/mL Geneticin G418 in an incubator at 37° C. with a humidified atmosphere with 5% CO2. Dexamethasone was added to the culture medium to induce GABAAR expression.
L(tk−) cells were harvested and membranes were prepared for each receptor combination in either TE buffer (10 mM Tris·CI/0.1 mM EDTA, pH 7.5) or phosphate buffer (K2PO4 10 mM, pH 7.0) (Hadingham et al. (1992) Proc. Natl. Acad. Sci. USA; 89 (14): 6378-82). Protein concentration, receptor expression and the Kd of [^3H]Ro15-1788 were determined before Ki value of the compounds were evaluated. For Kd evaluation, saturation binding curves were obtained by incubating membrane with various concentrations of [^3H]Ro15-1788 (82.5 Ci/mM), with nonspecific binding measured in the presence of 1-3 μM TP003.
For Ki evaluation, cell membranes were incubated with 4 nM [^3H]Ro15-1788 along with a range of concentrations of test compound. Nonspecific binding was determined using 1-3 μM TP003. All incubations were performed for 1 hour at 4° C. in assay buffer. The total assay volume was 0.5 mL, containing 40 μg/well α1β3γ2, 30 μg/well α2β3γ2, 40 μg/well α3β3γ2 and 30 μg/well for α5β3γ2 of membrane protein. Incubations were terminated by filtration and washing with ice cold Tris-HCl buffer (50 mM, pH=7.4) over Whatman GF/B filters and the radioactivity of the filters was measured using liquid scintillation counting.
The % inhibition of [^3H]Ro15-1788 binding was plotted as a function of compound concentration and the IC50 calculated. From the IC50, the affinity (Ki) was calculated using the method of Cheng and Prusoff using the Kd values obtained for [^3H]Ro15-1788.

human α2β3γ2 GABAARs = test: In vitro electrophysiological recording assay (automated patch-clamp), α2-GABAAR relative efficacy; type: cell-based; details: % efficacy normalised to diazepam; GABA EC10-20; concentration generally >= 100 times Ki
How it was run: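 Automated whole-cell patch clamp at 20-22° C on L(tk^−) cells (QPatch, −65 mV) or HEK293 cells (SyncroPatch, −80 mV) stably expressing the human receptor. Compound pre-applied ≥1 min, then co-applied with GABA EC10-20; % potentiation of leak-corrected peak current, normalised to diazepam, typically at ≥100× Ki.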

Sequence of human α2β3γ2 GABAARs (benzodiazepine site) (P47869 29-451): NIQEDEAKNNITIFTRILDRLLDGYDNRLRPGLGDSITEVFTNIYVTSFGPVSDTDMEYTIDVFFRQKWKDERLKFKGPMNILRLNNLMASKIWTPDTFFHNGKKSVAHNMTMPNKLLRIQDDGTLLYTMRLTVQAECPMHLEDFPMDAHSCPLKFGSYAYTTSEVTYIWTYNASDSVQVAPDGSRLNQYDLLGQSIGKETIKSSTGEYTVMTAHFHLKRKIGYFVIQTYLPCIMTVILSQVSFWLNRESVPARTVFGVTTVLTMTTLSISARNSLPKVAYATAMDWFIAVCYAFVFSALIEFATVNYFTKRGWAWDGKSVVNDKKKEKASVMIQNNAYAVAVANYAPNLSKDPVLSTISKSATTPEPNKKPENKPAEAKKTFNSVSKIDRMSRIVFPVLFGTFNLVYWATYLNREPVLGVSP
Sequence of human α2β3γ2 GABAARs (benzodiazepine site) (P28472 26-473 partner): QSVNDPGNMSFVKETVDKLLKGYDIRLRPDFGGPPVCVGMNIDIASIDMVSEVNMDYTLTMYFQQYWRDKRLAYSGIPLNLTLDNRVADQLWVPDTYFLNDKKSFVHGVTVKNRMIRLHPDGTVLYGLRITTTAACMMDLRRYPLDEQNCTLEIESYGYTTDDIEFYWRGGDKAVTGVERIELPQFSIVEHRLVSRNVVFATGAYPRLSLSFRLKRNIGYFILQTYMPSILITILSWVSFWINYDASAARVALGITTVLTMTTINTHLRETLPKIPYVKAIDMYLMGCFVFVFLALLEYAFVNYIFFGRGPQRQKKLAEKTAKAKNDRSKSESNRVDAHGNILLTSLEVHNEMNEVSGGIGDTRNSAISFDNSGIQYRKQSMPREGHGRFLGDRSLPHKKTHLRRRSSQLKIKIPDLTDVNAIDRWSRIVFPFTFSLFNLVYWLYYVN
Sequence of human α2β3γ2 GABAARs (benzodiazepine site) (P18507 40-475): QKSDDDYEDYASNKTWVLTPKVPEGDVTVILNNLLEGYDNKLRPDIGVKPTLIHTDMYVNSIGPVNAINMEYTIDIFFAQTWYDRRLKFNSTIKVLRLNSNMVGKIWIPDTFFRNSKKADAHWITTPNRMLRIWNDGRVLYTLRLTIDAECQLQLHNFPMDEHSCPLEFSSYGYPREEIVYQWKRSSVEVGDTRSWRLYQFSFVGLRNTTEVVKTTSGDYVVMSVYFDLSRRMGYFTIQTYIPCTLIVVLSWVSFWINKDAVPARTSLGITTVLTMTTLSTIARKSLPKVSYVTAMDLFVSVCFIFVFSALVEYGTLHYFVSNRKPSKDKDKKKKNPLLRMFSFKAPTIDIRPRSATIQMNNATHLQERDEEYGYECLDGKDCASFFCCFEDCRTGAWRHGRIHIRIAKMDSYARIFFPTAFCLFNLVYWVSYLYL

CCCNC(=O)c1c(N)c2cccc(-c3cccc(OC(F)F)n3)c2[nH]c1=O [Example 2, 4-Amino-8-(6-(difluoromethoxy)pyridin-2-yl)-2-oxo-N-propyl-1,2-dihydroquinoline-3-carboxamide] was tested, and the Ki [1] was 3.33 nM, the Ki [2] was 1.59 nM and the “α2-GABAAR Relative Efficacy (vs. Diazepam)” value (“α2-GABAAR Relative Efficacy” below) (human α2β3γ2 GABAARs) was 0.34.

In the case of CCCNC(=O)c1c(N)c2cccc(-c3cc(F)ccn3)c2[nH]c1=O [Example 4, 4-Amino-8-(4-fluoro-2-pyridyl)-2-oxo-N-propyl-1H-quinoline-3-carboxamide], the Ki [1] is reported as 1.26 nM, the Ki [2] is reported as 1.65 nM and the “α2-GABAAR Relative Efficacy” value (human α2β3γ2 GABAARs) is reported as 0.40.

CCCNC(=O)c1c(N)c2cccc(-c3ncccc3C)c2[nH]c1=O [Example 5, 4-Amino-8-(3-methylpyridin-2-yl)-2-oxo-N-propyl-1,2-dihydroquinoline-3-carboxamide] was tested, and the Ki [1] was 5.66 nM, the Ki [2] was 16.1 nM and the “α2-GABAAR Relative Efficacy” value (human α2β3γ2 GABAARs) was 0.42.

For CCCNC(=O)c1c(N)c2cccc(-c3nc(OC)ccc3F)c2[nH]c1=O [Example 8, 4-Amino-8-(3-fluoro-6-methoxypyridin-2-yl)-2-oxo-N-propyl-1,2-dihydroquinoline-3-carboxamide], the Ki [1] was 0.38 nM, the Ki [2] was 0.19 nM and the “α2-GABAAR Relative Efficacy” value (human α2β3γ2 GABAARs) was 0.24.

For CCCNC(=O)c1c(N)c2cccc(-c3nc(C(F)(F)F)ccc3C)c2[nH]c1=O [Example 13, 4-Amino-8-[3-methyl-6-(trifluoromethyl)-2-pyridyl]-2-oxo-N-propyl-1H-quinoline-3-carboxamide], the Ki [1] was 6.05 nM, the Ki [2] was 7.6 nM and the “α2-GABAAR Relative Efficacy” value (human α2β3γ2 GABAARs) was 0.34.

For CCCNC(=O)c1c(N)c2cccc(-c3cccnc3OC)c2[nH]c1=O [Example 14, 4-Amino-8-(2-methoxypyridin-3-yl)-2-oxo-N-propyl-1,2-dihydroquinoline-3-carboxamide], the Ki [1] was 2.13 nM, the Ki [2] was 6.02 nM and the “α2-GABAAR Relative Efficacy” value (human α2β3γ2 GABAARs) was 0.45.

For CCCNC(=O)c1c(N)c2cccc(-c3cncc(OC)c3)c2[nH]c1=O [Example 23, 4-Amino-8-(5-methoxy-3-pyridyl)-2-oxo-N-propyl-1H-quinoline-3-carboxamide], the Ki [1] was 2.31 nM, the Ki [2] was 7.21 nM and the “α2-GABAAR Relative Efficacy” value (human α2β3γ2 GABAARs) was 0.33.

With CCCNC(=O)c1c(N)c2cccc(-c3cncc(OC(C)C)c3)c2[nH]c1=O [Example 27, 4-Amino-8-(5-isopropoxypyridin-3-yl)-2-oxo-N-propyl-1,2-dihydroquinoline-3-carboxamide] the Ki [1] was 22.7 nM, the Ki [2] was 10.6 nM and the “α2-GABAAR Relative Efficacy” value (human α2β3γ2 GABAARs) was 0.28.

CCCNC(=O)c1c(N)c2cccc(-c3cccc4c3OC(F)(F)O4)c2[nH]c1=O [Example 51, 4-Amino-8-(2,2-difluoro-1,3-benzodioxol-4-yl)-2-oxo-N-propyl-1H-quinoline-3-carboxamide] was tested, and the Ki [1] was 1.71 nM, the Ki [2] was 1.63 nM and the “α2-GABAAR Relative Efficacy” value (human α2β3γ2 GABAARs) was 0.31.

In the case of CCCNC(=O)c1c(N)c2cccc(-c3ccnn3C)c2[nH]c1=O [Example 53, 4-Amino-8-(2-methylpyrazol-3-yl)-2-oxo-N-propyl-1H-quinoline-3-carboxamide], the Ki [1] is reported as 8.05 nM, the Ki [2] is reported as 18.4 nM and the “α2-GABAAR Relative Efficacy” value (human α2β3γ2 GABAARs) is reported as 0.17.

For CCCNC(=O)c1c(N)c2cccc(-c3cc(OCc4cccc(C)n4)ccc3F)c2[nH]c1=O [Example 88, 4-Amino-8-[2-fluoro-5-[(6-methyl-2-pyridyl)methoxy]phenyl]-2-oxo-N-propyl-1H-quinoline-3-carboxamide], the Ki [1] was 1.97 nM, the Ki [2] was 1.37 nM and the “α2-GABAAR Relative Efficacy” value (human α2β3γ2 GABAARs) was 0.26.

For CCCNC(=O)c1c(N)c2cccc(-c3cc(OCc4csc(C)n4)ccc3F)c2[nH]c1=O [Example 120, 4-Amino-8-(2-fluoro-5-((2-methylthiazol-4-yl)methoxy)phenyl)-2-oxo-N-propyl-1,2-dihydroquinoline-3-carboxamide], the Ki [1] was 1.19 nM, the Ki [2] was 1.18 nM and the “α2-GABAAR Relative Efficacy” value (human α2β3γ2 GABAARs) was 0.21.

CCCNC(=O)c1c(N)c2cccc(-c3cc(OCc4cocn4)ccc3F)c2[nH]c1=O [Example 121, 4-Amino-8-[2-fluoro-5-(oxazol-4-ylmethoxy)phenyl]-2-oxo-N-propyl-1H-quinoline-3-carboxamide] was tested, and the Ki [1] was 0.3 nM, the Ki [2] was 0.61 nM and the “α2-GABAAR Relative Efficacy” value (human α2β3γ2 GABAARs) was 0.35.

In the case of CCCNC(=O)c1c(N)c2cccc(-c3cc(OCc4coc(C)n4)ccc3F)c2[nH]c1=O [Example 122, 4-Amino-8-(2-fluoro-5-((2-methyloxazol-4-yl)methoxy)phenyl)-2-oxo-N-propyl-1,2-dihydroquinoline-3-carboxamide], the Ki [1] is reported as 0.89 nM, the Ki [2] is reported as 3.56 nM and the “α2-GABAAR Relative Efficacy” value (human α2β3γ2 GABAARs) is reported as 0.33.

CCCNC(=O)c1c(N)c2cccc(-c3cc(OCc4nnc(C(F)(F)F)o4)ccc3F)c2[nH]c1=O [Example 132, 4-Amino-8-[2-fluoro-5-[[5-(trifluoromethyl)-1,3,4-oxadiazol-2-yl]methoxy]phenyl]-2-oxo-N-propyl-1H-quinoline-3-carboxamide] was tested, and the Ki [1] was 0.66 nM, the Ki [2] was 1.19 nM and the “α2-GABAAR Relative Efficacy” value (human α2β3γ2 GABAARs) was 0.24.

For CCCNC(=O)c1c(N)c2cccc(-c3cc(CN4CC5(CCN(C)C5)C4)ccc3F)c2[nH]c1=O [Example 139, 4-Amino-8-(2-fluoro-5-((6-methyl-2,6-diazaspiro[3.4]octan-2-yl)methyl)phenyl)-2-oxo-N-propyl-1,2-dihydroquinoline-3-carboxamide], the Ki [1] was 1.08 nM and the “α2-GABAAR Relative Efficacy” value (human α2β3γ2 GABAARs) was 0.18.

In the case of CCCNC(=O)c1c(N)c2cccc(-c3cc(CN4CC5(CCN(C)CC5)C4)ccc3F)c2[nH]c1=O [Example 140, 4-Amino-8-(2-fluoro-5-((7-methyl-2,7-diazaspiro[3.5]nonan-2-yl)methyl)phenyl)-2-oxo-N-propyl-1,2-dihydroquinoline-3-carboxamide], the Ki [1] is reported as 1.88 nM and the “α2-GABAAR Relative Efficacy” value (human α2β3γ2 GABAARs) is reported as 0.34.

With CCCNC(=O)c1c(N)c2cccc(-c3cc(CN4CC5(CCOCC5)C4)ccc3F)c2[nH]c1=O [Example 141, hydrochloride] the Ki [1] was 2.61 nM and the “α2-GABAAR Relative Efficacy” value (human α2β3γ2 GABAARs) was 0.36.

For CCCNC(=O)c1c(N)c2cccc(-c3cc(CN4CCC5(CC4)CN(C)C5)ccc3F)c2[nH]c1=O [Example 144, 4-Amino-8-(2-fluoro-5-((2-methyl-2,7-diazaspiro[3.5]nonan-7-yl)methyl)phenyl)-2-oxo-N-propyl-1,2-dihydroquinoline-3-carboxamide], the Ki [1] was 1.99 nM, the Ki [2] was 5.43 nM and the “α2-GABAAR Relative Efficacy” value (human α2β3γ2 GABAARs) was 0.41.

In the case of CCCNC(=O)c1c(N)c2cccc(-c3cc(Cc4ncn(CC)n4)ccc3F)c2[nH]c1=O [Example 145, 4-Amino-8-(5-((1-ethyl-1H-1,2,4-triazol-3-yl)methyl)-2-fluorophenyl)-2-oxo-N-propyl-1,2-dihydroquinoline-3-carboxamide], the Ki [1] is reported as 1.29 nM and the “α2-GABAAR Relative Efficacy” value (human α2β3γ2 GABAARs) is reported as 0.28.
